Usually Kd stands for the concentration at which binding is half-saturated.

The record followed here is patent US20250296959A1, “B7-H3 TARGETING PEPTIDES AND CONSTRUCTS THEREOF” (Mariana Oncology Inc., priority 2024, published 2025).

Assay [1] has as its system Calu-6 cell line. Put plainly: Cell associated (bound) fraction of [177Lu]Lu-labeled peptide in Calu-6 cells. In kind it is cell-based, Human. Conditions: 1 hour, 37° C. In a few lines: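 Detached B7-H3-expressing human lung cancer cells at 5 million/mL were exposed for 1 hour at 37 °C to 0.8 μCi of the 177Lu-labelled peptide, which was formulated in 1% PBSA after labelling at 80 °C, pH ~5. Supernatant and two cold washes counted as unbound, and resuspended cells gamma-counted as the cell-associated fraction.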

In assay [2] the test system is Calu-6 cell line. Description: Net internalization of [177Lu]Lu-labeled peptide in Calu-6 cells. It counts as cell-based, Human. As to conditions: 1 hour, 37° C., glycine pH 2.5 acid wash. In a few lines:
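Calu-6 cells, human non-engineered lung cancer expressing B7-H3, resuspended in 1% PBSA at 5 million cells/mL and incubated with the 177Lu-labeled conjugate (labeled at 80 °C, pH ~5, RP-HPLC checked). Gamma counting of the bound fraction, then of the pellet after two glycine pH 2.5 acid strips and NaOH lysis, gives internalized activity.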

Assay [3] addresses T1, human 4lg B7-H3 (Homo sapiens, UniProt Q5ZPR3).
T1 sequence (Q5ZPR3 29-534): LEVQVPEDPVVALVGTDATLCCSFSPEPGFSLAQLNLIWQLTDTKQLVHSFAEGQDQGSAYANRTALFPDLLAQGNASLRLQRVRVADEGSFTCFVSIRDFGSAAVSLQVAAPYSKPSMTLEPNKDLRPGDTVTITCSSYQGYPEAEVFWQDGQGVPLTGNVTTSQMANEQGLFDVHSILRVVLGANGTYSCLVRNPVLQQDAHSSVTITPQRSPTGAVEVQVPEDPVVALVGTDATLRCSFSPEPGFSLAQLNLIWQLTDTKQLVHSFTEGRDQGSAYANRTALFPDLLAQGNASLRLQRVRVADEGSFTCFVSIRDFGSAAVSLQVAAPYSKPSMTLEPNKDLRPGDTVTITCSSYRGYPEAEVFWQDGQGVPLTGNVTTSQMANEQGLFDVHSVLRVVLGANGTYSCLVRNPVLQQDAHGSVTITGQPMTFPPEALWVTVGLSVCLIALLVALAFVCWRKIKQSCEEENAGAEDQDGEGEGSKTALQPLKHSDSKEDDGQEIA
Put plainly: Affinity determination by surface plasmon resonance (SPR) to 4Ig B7-H3. As to conditions: 4Ig B7-H3. On the technique in general: In SPR one partner is held on a chip, and binding of the other changes the refractive index at the surface.

[4] abbreviates: read-out: SPR KD—37° C., 37° C. flow cell temperature.
The mark [5] stands for this setting: read-out: SPR KD—25° C., 25° C. flow cell temperature.
Where [6] appears, read: SPR KD—37° C., 37° C. flow cell temperature.

Read-outs that look alike come from different tables or passages of the source. Starred links: 1 amine or outer side, 2 acyl side, 3 side chain; linkers in the order of their positions; H or OH if unused. Positions of bridges follow the written chain, without caps; N, C: chain ends. Non-standard residues stand in square brackets, D forms with d. Residues, ends and D or L forms follow the SMILES beside them. Groups on a side chain read outwards from the residue. *: point of attachment. Ala(piperidin-4-yl) = O=C([C@H](CC1CCN([*:3])CC1)N[*:1])[*:2]; DOTA = O=C(O)CN1CCN(CC(=O)O)CCN(CC(=O)*)CCN(CC(=O)O)CC1; Trp(5-F) = N[C@@H](Cc1c[nH]c2ccc(F)cc12)C(=O)O; X1 = C[C@@H](c1ccccc1)[C@H](N[*:1])C(=O)[*:2]; 1Nal = N[C@@H](Cc1cccc2ccccc12)C(=O)O; Ala(4-THP) = N[C@@H](CC1CCOCC1)C(=O)O; Val(3-OH) = CC(C)(O)[C@H](N)C(=O)O; hCha = N[C@@H](CCC1CCCCC1)C(=O)O; PEG4 = NCCOCCOCCOCCOCCC(=O)O; Tle = CC(C)(C)[C@H](N)C(=O)O; hLeu = CC(C)CC[C@H](N)C(=O)O Bounds are passed on as bounds.

Consider `CC(=O)N[C@@H](CCC(C)C)C(=O)N[C@@H](Cc1ccc(O)cc1)C(=O)N[C@H]1CSSC[C@@H](C(=O)N[C@@H](Cc2c[nH]c3ccc(F)cc23)C(=O)N[C@@H](Cc2ccccc2)C(=O)N[C@H](C(=O)N[C@H](C)C(=O)O)C(C)(C)O)NC(=O)[C@H](Cc2ccc(O)cc2)NC(=O)[C@H](C(C)C)NC(=O)[C@H](CC(=O)O)NC(=O)[C@H](CC2CCN(C(=O)CCOCCOCCOCCOCCNC(=O)CN3CCN(CC(=O)O)CCN(CC(=O)O)CCN(CC(=O)O)CC3)CC2)NC(=O)[C@H](CC2CCNCC2)NC(=O)CNC(=O)[C@H](C(C)(C)C)NC1=O` [compound 455, Ac-hLeu-Y-C-Tbg-G-PipAla-Pip(PEG4-DOTA)Ala-D-V-Y-C-5FW-F-hydroxyVal-dAla-COOH] (Ac-[hLeu]YC[Tle]G[Ala(piperidin-4-yl)][Ala(piperidin-4-yl)]([PEG4-DOTA])DVYC[Trp(5-F)]F[Val(3-OH)][dA]-OH; disulfide 3-11), for which the “% cell associated fraction” value in assay [1] is “C (%>50)”. Besides, the “% net internalization” value in assay [2] is reported as “B (25<%≤50)”. Moreover, in assay [3] (setting [4]), the Kd was below 1 nM.

With `CC(=O)N[C@@H](CCC(C)C)C(=O)N[C@@H](Cc1ccc(O)cc1)C(=O)N[C@H]1CSSC[C@@H](C(=O)N[C@@H](Cc2cccc3ccccc23)C(=O)N[C@@H](Cc2ccccc2)C(=O)N[C@H](C(=O)N[C@H](CCCCNC(=O)CN2CCN(CC(=O)O)CCN(CC(=O)O)CCN(CC(=O)O)CC2)C(N)=O)[C@@H](C)O)NC(=O)[C@H](Cc2ccc(O)cc2)NC(=O)[C@H](C(C)C)NC(=O)[C@H](CC(=O)O)NC(=O)[C@H](Cc2ccc(O)cc2)NC(=O)[C@H](CCCCN)NC(=O)CNC(=O)[C@H](C(C)(C)C)NC1=O` [compound 179, Ac-hLeu-Y-C-Tbg-G-K-Y-D-V-Y-C-1Nal-F-Thr-dLys(DOTA)-CONH2] (Ac-[hLeu]YC[Tle]GKYDVYC[1Nal]FT[dK](DOTA)-NH2; disulfide 3-11), in assay [1], the “% cell associated fraction” value is on record as “B (25<%≤50)”. Besides, the “% net internalization” value in assay [2] is on record as “A (%≤25)”. The dissociation constant (Kd) in assay [3] (setting [5]) is below 1 nM.

In the case of `CC(=O)N[C@@H](CCC(C)C)C(=O)N[C@@H](Cc1ccc(O)cc1)C(=O)N[C@H]1CSSC[C@@H](C(=O)N[C@@H](Cc2c[nH]c3ccc(F)cc23)C(=O)N[C@@H](Cc2ccccc2)C(=O)N[C@H](C(=O)N[C@H](CCCCNC(=O)CN2CCN(CC(=O)O)CCN(CC(=O)O)CCN(CC(=O)O)CC2)C(=O)O)C(C)(C)O)NC(=O)[C@H](Cc2ccc(O)cc2)NC(=O)[C@H](C(C)C)NC(=O)[C@H](CC(=O)O)NC(=O)[C@H](CC2CCOCC2)NC(=O)[C@H](CCCCN)NC(=O)CNC(=O)[C@H](C(C)(C)C)NC1=O` [compound 303, Ac-hLeu-Y-C-Tbg-G-K-ThpA-D-V-Y-C-5FW-F-hydroxyVal-dLys(DOTA)-COOH] (Ac-[hLeu]YC[Tle]GK[Ala(4-THP)]DVYC[Trp(5-F)]F[Val(3-OH)][dK](DOTA)-OH; disulfide 3-11), in assay [1], the “% cell associated fraction” value was “C (%>50)”. For the same compound, the “% net internalization” value in assay [2] was “B (25<%≤50)”. Moreover, the Kd in assay [3] (setting [5]) and in assay [3] (setting [4]) was below 1 nM in each case.

Take `CC(=O)N[C@@H](CCC(C)C)C(=O)N[C@@H](Cc1ccc(O)cc1)C(=O)N[C@H]1CSSC[C@@H](C(=O)N[C@@H](Cc2c[nH]c3ccc(F)cc23)C(=O)N[C@H](C(=O)N[C@H](C(=O)N[C@H](CCC(=O)O)C(N)=O)C(C)(C)O)[C@@H](C)c2ccccc2)NC(=O)[C@H](Cc2ccc(O)cc2)NC(=O)[C@H](C(C)C)NC(=O)[C@H](CC(=O)O)NC(=O)[C@H](CC2CCN(C(=O)CCOCCOCCOCCOCCNC(=O)CN3CCN(CC(=O)O)CCN(CC(=O)O)CCN(CC(=O)O)CC3)CC2)NC(=O)[C@H](CC2CCNCC2)NC(=O)CNC(=O)[C@H](C(C)(C)C)NC1=O` [compound 495, Ac-hLeu-Y-C-Tbg-G-PipAla-Pip(PEG4-DOTA)Ala-D-V-Y-C-5FW-[(2S, 3S)beta-Me-Phe]-hydroxyVal-dGlu-CONH2] (Ac-[hLeu]YC[Tle]G[Ala(piperidin-4-yl)][Ala(piperidin-4-yl)]([PEG4-DOTA])DVYC[Trp(5-F)][X1][Val(3-OH)][dE]-NH2; disulfide 3-11): the “% cell associated fraction” value in assay [1] is recorded as “C (%>50)”. Besides, the “% net internalization” value in assay [2] was “A (%≤25)”. Besides, the dissociation constant Kd in assay [3] (setting [4]) was below 1 nM.

Regarding `CC(=O)N[C@@H](CCC(C)C)C(=O)N[C@@H](Cc1ccc(O)cc1)C(=O)N[C@H]1CSSC[C@@H](C(=O)N[C@@H](Cc2c[nH]c3ccc(F)cc23)C(=O)N[C@@H](Cc2ccccc2)C(=O)N[C@H](C(=O)N[C@H](CCCCNC(=O)[C@@H](CCC(=O)O)NC(=O)CN2CCN(CC(=O)O)CCN(CC(=O)O)CCN(CC(=O)O)CC2)C(=O)O)C(C)(C)O)NC(=O)[C@H](Cc2ccc(O)cc2)NC(=O)[C@H](C(C)C)NC(=O)[C@H](CC(=O)O)NC(=O)[C@H](CC2CCOCC2)NC(=O)[C@H](CC2CCNCC2)NC(=O)CNC(=O)[C@H](C(C)(C)C)NC1=O` [compound 429, Ac-hLeu-Y-C-Tbg-G-PipAla-ThpA-D-V-Y-C-5FW-F-hydroxyVal-dLys(dGlu-DOTA)-COOH] (Ac-[hLeu]YC[Tle]G[Ala(piperidin-4-yl)][Ala(4-THP)]DVYC[Trp(5-F)]F[Val(3-OH)][dK]([dE-DOTA])-OH; disulfide 3-11), the “% cell associated fraction” value in assay [1] is listed as “B (25<%≤50)”. Further, the “% net internalization” value in assay [2] is “A (%≤25)”. For the same compound, the Kd in assay [3] (setting [4]) is below 1 nM.

Consider `CC(=O)N[C@@H](CCC(C)C)C(=O)N[C@@H](Cc1ccc(O)cc1)C(=O)N[C@H]1CSSC[C@@H](C(=O)N[C@@H](Cc2cccc3ccccc23)C(=O)N[C@@H](Cc2ccccc2)C(=O)N[C@H](C(=O)N[C@H](CCCCNC(=O)CN2CCN(CC(=O)O)CCN(CC(=O)O)CCN(CC(=O)O)CC2)C(=O)O)C(C)(C)O)NC(=O)[C@H](Cc2ccc(O)cc2)NC(=O)[C@H](C(C)C)NC(=O)[C@H](CC(=O)O)NC(=O)[C@H](CC2CCOCC2)NC(=O)[C@H](CC2CCNCC2)NC(=O)CNC(=O)[C@H](C(C)(C)C)NC1=O` [compound 436, Ac-hLeu-Y-C-Tbg-G-PipAla-ThpA-D-V-Y-C-1Nal-F-hydroxyVal-dLys(DOTA)-COOH] (Ac-[hLeu]YC[Tle]G[Ala(piperidin-4-yl)][Ala(4-THP)]DVYC[1Nal]F[Val(3-OH)][dK](DOTA)-OH; disulfide 3-11), for which the “% cell associated fraction” value in assay [1] is “B (25<%≤50)”. Moreover, the “% net internalization” value in assay [2] was “A (%≤25)”. Moreover, the Kd in assay [3] (setting [6]) was below 1 nM.

With `CC(=O)N[C@@H](CCC1CCCCC1)C(=O)N[C@@H](Cc1ccc(O)cc1)C(=O)N[C@H]1CSSC[C@@H](C(=O)N[C@@H](Cc2c[nH]c3ccc(F)cc23)C(=O)N[C@@H](Cc2ccccc2)C(=O)N[C@H](C(=O)N[C@H](CCCCNC(=O)CN2CCN(CC(=O)O)CCN(CC(=O)O)CCN(CC(=O)O)CC2)C(=O)O)C(C)(C)O)NC(=O)[C@H](Cc2ccc(O)cc2)NC(=O)[C@H](C(C)C)NC(=O)[C@H](CC(=O)O)NC(=O)[C@H](CC2CCOCC2)NC(=O)[C@H](CCCCN)NC(=O)CNC(=O)[C@H](C(C)(C)C)NC1=O` [compound 368, Ac-hCha-Y-C-Tbg-G-K-ThpA-D-V-Y-C-5FW-F-hydroxyVal-dLys(DOTA)-COOH] (Ac-[hCha]YC[Tle]GK[Ala(4-THP)]DVYC[Trp(5-F)]F[Val(3-OH)][dK](DOTA)-OH; disulfide 3-11), the “% cell associated fraction” value in assay [1] is “B (25<%≤50)”. For the same compound, in assay [2], the “% net internalization” value is recorded as “A (%≤25)”. The same compound came in with a dissociation constant Kd in assay [3] (setting [6]) below 1 nM.
